Source: patent publication US20140271470A1, “TARGETED THERANOSTICS FOR METASTATIC PROSTATE CANCER” (priority 2013, published 2014)

Key:
NF-κB = details: cited from earlier work
[1] = system: PC-3M orthotopic human tumor xenografts; details: combined with radiation; cited from earlier work
[2] = biological target: T1, neurotensin receptor 1 (NTR1) (Homo sapiens, UniProt P30989); details: combined with radiation; cited from earlier work
T1 construct: NTR1, which is highly expressed in prostate cancer cells but not in normal prostate epithelial cells; endogenous in cells; PC-3M for the xenograft

[3] = system: human C4-2 prostate cancer xenografts; assay: Tumor volume growth of C4-2 xenografts treated with SIPP preparations; assay type: in vivo, nude mice; details: tumor volume growth curves
Text: Tumor volume growth curves for nude mice bearing human C4-2 prostate cancer xenografts treated with various preparations of SIPPs. (A) Black squares, no treatment controls.

T1 sequence (P30989 whole entry): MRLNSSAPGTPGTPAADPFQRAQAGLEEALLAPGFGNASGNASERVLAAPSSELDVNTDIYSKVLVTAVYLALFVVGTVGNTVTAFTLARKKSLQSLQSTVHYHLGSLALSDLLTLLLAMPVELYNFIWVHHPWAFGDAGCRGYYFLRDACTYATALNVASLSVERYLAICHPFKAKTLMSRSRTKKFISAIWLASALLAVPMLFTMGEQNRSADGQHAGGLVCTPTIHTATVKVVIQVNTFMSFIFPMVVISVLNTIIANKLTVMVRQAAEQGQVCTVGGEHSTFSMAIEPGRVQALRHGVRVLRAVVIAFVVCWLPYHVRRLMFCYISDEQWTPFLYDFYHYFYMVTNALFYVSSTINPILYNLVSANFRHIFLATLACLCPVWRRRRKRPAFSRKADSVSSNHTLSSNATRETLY

C[C@H]1O[C@@H](O[C@H]2[C@@H](O)C[C@H](O[C@H]3[C@@H](O)C[C@H](O[C@H]4CC[C@@]5(C)[C@H](CC[C@@H]6[C@@H]5CC[C@]5(C)[C@@H](C7=CC(=O)OC7)CC[C@]65O)C4)O[C@@H]3C)O[C@@H]2C)C[C@H](O)[C@@H]1O [digitoxin]
NF-κB inhibition (NF-κB): potent inhibitors of NF-κB

C[C@H]1O[C@@H](O[C@H]2[C@@H](O)C[C@H](O[C@H]3[C@@H](O)C[C@H](O[C@H]4CC[C@@]5(C)[C@H](CC[C@@H]6[C@@H]5C[C@@H](O)[C@]5(C)[C@@H](C7=CC(=O)OC7)CC[C@]65O)C4)O[C@@H]3C)O[C@@H]2C)C[C@H](O)[C@@H]1O [digoxin]
NF-κB inhibition (NF-κB): potent inhibitors of NF-κB

COc1cccc(OC)c1-c1cc(C(=O)NC2(C(=O)O)C3CC4CC(C3)CC2C4)nn1-c1ccnc2cc(Cl)ccc12 (centres unmarked) [SR48692]
radiosensitization of xenografts [1]: efficiently radiosensitizedn
tumor burden [1]: significantly reduced tumor burden
apoptotic cell death [2]: increasing apoptotic cell death
clonogenic survival [2]: decreasing clonogenic survival
radiosensitization of prostate cancer cells [2]: sensitized prostate cancer cells in a dose- and time-dependent manner

CC(=O)O[C@H]1C(=O)[C@@]2(C)[C@H]([C@H](OC(=O)c3ccccc3)[C@]3(O)C[C@H](OC(=O)[C@H](O)[C@@H](NC(=O)c4ccccc4)c4ccccc4)C(C)=C1C3(C)C)[C@]1(OC(C)=O)CO[C@@H]1C[C@@H]2O [Paclitaxel, paclitaxel]
effect on tumor growth [3]: effective
